Experimental data from BindingDB's records for doi:10.1021/jm00039a008 (Albany Molecular Research, 1994).
Counter-ions that a name gives are not always drawn.

Assay: Binding affinity was measured as selectivity for sigma-1 site over muscarinic (M1) receptor in rat

Row | Structure (SMILES) | Ki [nM]
1 | COc1ccc2c(c1)[C@]13CCCC[C@@H]1[C@H](C2)N(C)CC3 [DEXTROMETHORPHAN] | 5070

Assay: Affinity at sigma-1 site by inhibition of [3H](+)-pentazocine (PENT) binding in guinea pig brain

Row | Structure (SMILES) | Ki [nM]
2 | O=C(OCCN1CCC(c2ccccc2)CC1)C1(c2ccc(Cl)cc2)CCCC1 [1-(4-Chloro-phenyl)-cyclopentanecarboxylic acid 2-(4-phenyl-piperidin-1-yl)-ethyl ester; hydrochloride] | 1.3
3 | O=C(OCCN1CCC(c2ccccc2)CC1)C1(c2ccc(I)cc2)CCCC1 [1-(4-Iodo-phenyl)-cyclopentanecarboxylic acid 2-(4-phenyl-piperidin-1-yl)-ethyl ester; hydrochloride] | 1.4
4 | O=C(OCCCN1CCC(c2ccccc2)CC1)C1(c2ccc(Cl)cc2)CCCC1 [1-(4-Chloro-phenyl)-cyclopentanecarboxylic acid 3-(4-phenyl-piperidin-1-yl)-propyl ester; hydrochloride] | 1.5
5 | COc1ccc(C2(C(=O)OCCCN3CCC(c4ccccc4)CC3)CCCC2)cc1 [1-(4-Methoxy-phenyl)-cyclopentanecarboxylic acid 3-(4-phenyl-piperidin-1-yl)-propyl ester; hydrochloride] | 0.65
6 | O=C(OCCCCCCN1CCC(c2ccccc2)CC1)C1(c2ccccc2)CCCC1 [1-Phenyl-cyclopentanecarboxylic acid 6-(4-phenyl-piperidin-1-yl)-hexyl ester; hydrochloride] | 1.2
7 | O=C(OCCCN1CCC(c2ccccc2)CC1)C1(c2ccc([N+](=O)[O-])cc2)CCCC1 [1-(4-Nitro-phenyl)-cyclopentanecarboxylic acid 3-(4-phenyl-piperidin-1-yl)-propyl ester; hydrochloride] | 0.27
8 | O=C(OCCN1CCN(c2ccccc2)CC1)C1(c2ccccc2)CCCC1 [1-Phenyl-cyclopentanecarboxylic acid 2-(4-phenyl-piperazin-1-yl)-ethyl ester; hydrochloride] | 63
9 | O=C(OCCN1CCN(c2ccccc2)CC1)C1(c2ccc(I)cc2)CCCC1 [1-(4-Iodo-phenyl)-cyclopentanecarboxylic acid 2-(4-phenyl-piperazin-1-yl)-ethyl ester; hydrochloride] | 23
10 | O=C(OCCN1CCN(c2ccccc2)CC1)C1(c2ccc(Cl)cc2)CCCC1 [1-(4-Chloro-phenyl)-cyclopentanecarboxylic acid 2-(4-phenyl-piperazin-1-yl)-ethyl ester; hydrochloride] | 77
11 | O=C(OCCN1CCC(c2ccccc2)CC1)C1(c2ccccc2)CCCC1 [1-Phenyl-cyclopentanecarboxylic acid 2-(4-phenyl-piperidin-1-yl)-ethyl ester; hydrochloride] | 4
12 | O=C(OCCCCN1CCC(c2ccccc2)CC1)C1(c2ccccc2)CCCC1 [1-Phenyl-cyclopentanecarboxylic acid 4-(4-phenyl-piperidin-1-yl)-butyl ester; hydrochloride] | 0.51
13 | O=C(OCCN1CCN(c2ccccc2)CC1)C1(c2ccc([N+](=O)[O-])cc2)CCCC1 [1-(4-Nitro-phenyl)-cyclopentanecarboxylic acid 2-(4-phenyl-piperazin-1-yl)-ethyl ester; hydrochloride] | 2.8
14 | COc1ccc(C2(C(=O)OCCN3CCC(c4ccccc4)CC3)CCCC2)cc1 [1-(4-Methoxy-phenyl)-cyclopentanecarboxylic acid 2-(4-phenyl-piperidin-1-yl)-ethyl ester; hydrochloride] | 1
15 | O=C(OCCCN1CCC(c2ccccc2)CC1)C1(c2ccc(I)cc2)CCCC1 [1-(4-Iodo-phenyl)-cyclopentanecarboxylic acid 3-(4-phenyl-piperidin-1-yl)-propyl ester; hydrochloride] | 0.88
16 | N#Cc1ccc(C2(C(=O)OCCN3CCC(c4ccccc4)CC3)CCCC2)cc1 [1-(4-Cyano-phenyl)-cyclopentanecarboxylic acid 2-(4-phenyl-piperidin-1-yl)-ethyl ester; hydrochloride] | 1.3
